What follows are compounds tested on Tetrahymena pyriformis (assay: 48 h IGC50 (-log10 mol/L); higher = more toxic).

In order of rising “48 h IGC50 (-log10 mol/L)” value:
1. COC(N)=O  1.02
2. CC(=O)N(C)C  1.05
3. OCC#CCO  1.12
4. CCS(=O)(=O)CC  1.16
5. CNCCO  1.18
6. COP(=O)(OC)OC  1.18
7. CC(C)(O)C#CC(C)(C)O  1.42
8. O=C(O)Cc1ccc(O)cc1  1.5
9. CC=CCO  1.53
10. CC(C)(C)OC=O  1.63
11. CCC(O)CC  1.76
12. Fc1ccccn1  1.8
13. CC/C=C\CO  1.9
14. CC(C)C(C)O (centres undefined)  2
15. CC(=O)c1ccn(C)c1  2
16. CCC[N+](=O)[O-]  2.01
17. Cc1[nH]cnc1C=O  2.07
18. CC(Cl)C#N (centres undefined)  2.14
19. C/C=C/CCCO  2.25
20. CCC(C)(C)N  2.3
21. CCCC(C)N (centres undefined)  2.31
22. CCCC[N+](=O)[O-]  2.31
23. O=C(O)CCCCBr  2.31
24. O=C(O)CCCCl  2.32
25. CCCC(N)CO (centres undefined)  2.33
26. OCCc1ccccc1  2.41
27. CCCCC(N)CO (centres undefined)  2.42
28. CC(C)C(N)CO (centres undefined)  2.42
29. CCOC(=O)C(C)C(=O)OCC  2.49
30. N#CCCBr  2.5
31. CCOC(=O)C=C(C)C  2.52
32. N#Cc1cccc(N)c1  2.53
33. CCCC(C)C=O (centres undefined)  2.53
34. CC(C)(CO)CBr  2.54
35. CCC(=O)OC(C)(C)C  2.59
36. NC(N)=NC(N)=Nc1ccccc1  2.61
37. COc1cc(C=O)cc(O)c1OC  2.61
38. O=C(O)c1cc(Br)ccc1Br  2.69
39. O=Cc1cc(O)c(O)c(O)c1  2.8
40. OCc1c(F)c(F)c(F)c(F)c1F  2.8
41. NC(=O)c1cccc([N+](=O)[O-])c1  2.81
42. CCCCCCC(C)=O  2.85
43. C=COC(=O)/C=C/C  2.85
44. Fc1nc(F)c(F)c(Br)c1F  2.87
45. CC(=O)c1ccc(O)c(C(N)=O)c1  2.9
46. O=C(O)CCCCCCCCCCC(=O)O  2.91
47. CCOC(=O)C(C(=O)OCC)=C(C)C  2.93
48. N#Cc1cccc(Cl)c1  2.94
49. Cc1ccc(CN)cc1  2.99
50. CC(=S)Nc1ccccc1  2.99
51. O=Cc1ccoc1  3
52. CCCCCC1CCC(=O)O1 (centres undefined)  3.01
53. COc1cccc(C#N)c1  3.01
54. CCc1ccc(N)cc1  3.03
55. CCCC/C=C/CO  3.04
56. O=[N+]([O-])c1cccc2cccnc12  3.08
57. O=Cc1c(O)cc(O)cc1O  3.13
58. COc1ccccc1C=O  3.15
59. N#C/C=C/c1ccccc1  3.16
60. CSc1ccccc1  3.18
61. CC(C)c1ccc(N)cc1  3.22
62. COC(=O)c1ccccc1  3.23
63. CC(=O)c1ccc(O)cc1O  3.25
64. CCc1ccc(C=O)cc1  3.29
65. COC(=O)CCCCCCC(=O)OC  3.3
66. N#CCC(=O)c1ccco1  3.3
67. OCCc1ccc(Cl)cc1  3.32
68. OCc1ccccc1I  3.33
69. Oc1ccccc1Br  3.33
70. CCCCCCCCC(=O)O  3.35
71. OCc1cccc(Br)c1  3.37
72. CC(=O)OCCCCBr  3.39
73. Cc1ccc(Cl)cc1N  3.5
74. CCCCCC(=O)CC(C)=O  3.51
75. CC#CC(=O)OCC  3.51
76. CCN(CC)C(=O)CCl  3.52
77. O=[N+]([O-])c1cc(CO)cc([N+](=O)[O-])c1  3.53
78. CCCCCCCC(=O)OC  3.54
79. C=CCBr  3.57
80. CCOC(=O)c1ccc(O)cc1  3.57
81. O=C/C=C/c1ccccc1  3.68
82. O=[N+]([O-])c1ccccc1Cl  3.68
83. CCCC#CC(=O)OCC  3.7
84. C/C=C/C=C/C=O  3.74
85. Oc1ccccc1-c1ccccc1O  3.88
86. C=C(C=O)CC  3.91
87. C/C=C/C(=O)CC  3.92
88. CCCCCCCCC(C)O (centres undefined)  3.99
89. Cc1ccc2ccccc2c1[N+](=O)[O-]  4.04
90. O=Cc1ccc(O)c2ccccc12  4.05
91. C#CCOC(=O)C=C  4.06
92. c1cnc2c(c1)ccc1ncccc12  4.07
93. Oc1cccc(I)c1  4.12
94. O=[N+]([O-])c1ccc(F)cc1O  4.12
95. O=[N+]([O-])c1ccc(CCl)cc1  4.18
96. CCCOC(=O)CCl  4.18
97. N#Cc1cc([N+](=O)[O-])cc([N+](=O)[O-])c1  4.22
98. Nc1c(Br)cc([N+](=O)[O-])cc1[N+](=O)[O-]  4.24
99. CCOc1cccc2ccccc12  4.25
100. CC(C)(C)C(=O)CCl  4.27
101. O=[N+]([O-])c1cc(O)ccc1Cl  4.27
102. O=[N+]([O-])c1cc(Br)ccc1Br  4.37
103. CCCCCCOc1ccc(N)cc1  4.38
104. O=[N+]([O-])c1ccc(Br)s1  4.41
105. CCCCCCC(Br)C(=O)OCC (centres undefined)  4.5
106. O=C(c1ccccc1)c1cccc(Cl)c1  4.55
107. O=Cc1cc(Cl)cc(Cl)c1O  4.55
108. Nc1c(Br)cc(Br)cc1[N+](=O)[O-]  4.62
109. O=[N+]([O-])c1cc(Br)cc(F)c1O  4.62
110. COc1ccc(Cl)c(Cl)c1Cl  4.64
111. C=CC(=O)CCC  4.66
112. Sc1ccccc1  4.66
113. CCCCCCCCCCC=O  4.69
114. O=Cc1cc2ccccc2c2ccccc12  4.71
115. Oc1c(Cl)cc(Br)cc1Cl  4.78
116. O=C(CBr)Oc1ccc([N+](=O)[O-])cc1  4.81
117. NC(=O)CI  4.85
118. CC(C)(Br)[N+](=O)[O-]  4.85
119. Cc1cc(O)c(C(C)C)cc1Cl  4.85
120. O=[N+]([O-])c1c(F)cc(F)c(F)c1F  4.87
121. O=[N+]([O-])c1ccc(Nc2ccccc2)cc1  4.89
122. CCCCCCOC(=O)c1ccccc1  4.94
123. CCOC(=O)C(Br)CBr (centres undefined)  5.21
124. N#CCBr  5.23
125. Cc1cc(Cl)c([N+](=O)[O-])cc1[N+](=O)[O-]  5.33
126. S=C=NCCCc1ccccc1  5.54

The compounds below were run on Pimephales promelas (assay: 96 h LC50 (-log10 mol/L); higher = more toxic).

In order of rising “96 h LC50 (-log10 mol/L)” value:
1. CCN1C(=O)CC(=O)N(CC)C1=S  1.65
2. CCN(CC)CCCC(C)=O  2.67
3. C=C(Cl)Cl  2.86
4. Nc1ccc(S(=O)(=O)O)cc1  3.24
5. O=C(CCl)c1ccc(Cl)cc1  4.21
6. Cc1c([N+](=O)[O-])cc(N)cc1[N+](=O)[O-]  4.46
7. O=[N+]([O-])c1ccc(/C=C/c2cccc(CO)n2)o1  5.48
8. ClC1=C(Cl)[C@]2(Cl)C3C(Cl)C(Cl)CC3[C@@]1(Cl)C2(Cl)Cl (some centres undefined)  6.82
